In ChEMBL document CHEMBL3232785, “Basic quinolinonyl diketo acid derivatives as inhibitors of HIV integrase and their activity against RNase H function of reverse transcriptase” (J Med Chem, 2014):
Values belong to the molecule of their own block, whether it stands above or below them. The source made the active and inactive calls. The rule behind the calls is not given here.

Experiments:
HeLa = test: Cytotoxicity against human HeLa cells expressing CD4-LTR-beta-gal after 24 hrs by ATPlite assay; type: cell-based
[1] = system: Human immunodeficiency virus 1; test: Antiviral activity against HIV1 3B infected in human HeLa cells expressing CD4-LTR-beta-gal assessed as inhibition of viral replication after 3 days by reporter gene assay; type: functional, organism-based; details: Human immunodeficiency virus 1, 3B, 72 h
in vitro = details: human, HeLa cells expressing CD4-LTR-beta-gal
Description: Selectivity index, ratio of CC50 for human HeLa cells expressing CD4-LTR-beta-gal to EC50 for HIV1 3B

[2] = biological target: T1, Human immunodeficiency virus type 1 integrase (Human immunodeficiency virus 1, UniProt Q7ZJM1); test: Inhibition of HIV1 integrase strand transfer activity by gel-based assay
T1 sequence (Q7ZJM1 whole entry): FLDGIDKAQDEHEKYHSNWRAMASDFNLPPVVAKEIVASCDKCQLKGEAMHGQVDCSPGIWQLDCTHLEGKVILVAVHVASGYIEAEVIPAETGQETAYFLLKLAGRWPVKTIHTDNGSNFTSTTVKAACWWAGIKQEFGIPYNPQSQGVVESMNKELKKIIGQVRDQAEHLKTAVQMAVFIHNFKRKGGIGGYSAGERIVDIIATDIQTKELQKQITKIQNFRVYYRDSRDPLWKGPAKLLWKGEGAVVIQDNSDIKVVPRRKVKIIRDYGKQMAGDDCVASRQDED

[3] = biological target: T1, Human immunodeficiency virus type 1 integrase; test: Inhibition of HIV1 integrase 3'-processing activity by gel-based assays
[4] = biological target: Human immunodeficiency virus type 1 reverse transcriptase (Human immunodeficiency virus 1) (UniProt Q72547); test: Inhibition of HIV1 polymerase function of reverse transcriptase up to 40 uM
[5] = biological target: Human immunodeficiency virus type 1 reverse transcriptase (Human immunodeficiency virus 1, UniProt Q72547); test: Inhibition of HIV1 RNase H function of recombinant reverse transcriptase using an 18-nt 3'-fluorescein-labeled RNA annealed to complementary 18-nt 5'-dabsyl-labeled DNA as substrate after 10 mins by fluorescence spectrometer analysis

- EC50 [1]: > 50 µM
SMILES: CN(C)c1ccc2c(=O)c(C(=O)/C=C(\O)C(=O)O)cn(Cc3ccc(F)cc3)c2c1

- EC50 [1]: 20.9 µM
- IC50 [2]: 24 µM
- IC50 [3]: > 333 µM
SMILES: CCOC(=O)/C(O)=C/C(=O)c1cn(Cc2ccc(F)cc2)c2cc(N3CCNCC3)ccc2c1=O
- selectivity ratio (in vitro): > 2.4
- CC50 (HeLa): > 50 µM

- EC50 [1]: 16.2 µM
- IC50 [2]: 2.1 µM
- IC50 [3]: > 111 µM
SMILES: CCOC(=O)/C(O)=C/C(=O)c1cn(Cc2ccc(F)cc2)c2cc(N3CCOCC3)ccc2c1=O
- selectivity ratio (in vitro): > 3
- CC50 (HeLa): > 50 µM

- EC50 [1]: > 50 µM
- IC50 [2]: 0.17 µM
- IC50 [3]: 17 µM
SMILES: CCOC(=O)/C(O)=C/C(=O)c1cn(Cc2ccc(F)cc2)c2cc(N3CCN(C(C)=O)CC3)ccc2c1=O

- EC50 [1]: > 50 µM
- IC50 [2]: 0.21 µM
- IC50 [3]: 23 µM
SMILES: CCN1CCN(c2ccc3c(=O)c(C(=O)/C=C(\O)C(=O)O)cn(Cc4ccc(F)cc4)c3c2)CC1

- EC50 [1]: > 50 µM
- IC50 [2]: 0.1 µM
- IC50 [3]: 8.5 µM
SMILES: CN1CCN(c2ccc3c(=O)c(C(=O)/C=C(\O)C(=O)O)cn(Cc4ccc(F)cc4)c3c2)CC1

- EC50 [1]: 13.2 µM
- IC50 [2]: 1.3 µM
- IC50 [3]: 102 µM
SMILES: CCOC(=O)/C(O)=C/C(=O)c1cn(Cc2ccc(F)cc2)c2cc(N3CCN(CCCCl)CC3)ccc2c1=O
- selectivity ratio (in vitro): > 3.7
- CC50 (HeLa): > 50 µM

- EC50 [1]: 0.0142 µM
SMILES: COc1cc2c(cc1Cc1cccc(Cl)c1F)c(=O)c(C(=O)O)cn2[C@H](CO)C(C)C
- CC50 (HeLa): > 50 µM

- EC50 [1]: > 50 µM
SMILES: O=C(O)/C(O)=C/C(=O)c1cn(Cc2ccc(F)cc2)c2cc(N3CCNCC3)ccc2c1=O

- EC50 [1]: > 50 µM
- IC50 [2]: 0.36 µM
- IC50 [3]: 30 µM
SMILES: O=C(O)/C(O)=C/C(=O)c1cn(Cc2ccc(F)cc2)c2cc(N3CCSCC3)ccc2c1=O

- EC50 [1]: > 50 µM
- IC50 [2]: 2.9 µM
- IC50 [3]: 41 µM
SMILES: CCOC(=O)/C(O)=C/C(=O)c1cn(Cc2ccc(F)cc2)c2cc(N(C)C)ccc2c1=O

The remaining lines, values behind:

SMILES: CCOC(=O)/C(O)=C/C(=O)c1cn(Cc2ccc(F)cc2)c2cc(N3CCCC3)ccc2c1=O
- CC50 (HeLa): > 50 µM

SMILES: CCOC(=O)/C(O)=C/C(=O)c1cn(Cc2ccc(F)cc2)c2cc(N3CCN(C)CC3)ccc2c1=O
- CC50 (HeLa): > 50 µM

SMILES: Cc1nnc(C(=O)NC(C)(C)c2nc(C(=O)NCc3ccc(F)cc3)c(O)c(=O)n2C)o1
- CC50 (HeLa): > 50 µM

SMILES: CC(=O)N1CCN(c2ccc3c(=O)c(C(=O)/C=C(\O)C(=O)O)cn(Cc4ccc(F)cc4)c3c2)CC1
- CC50 (HeLa): > 50 µM

SMILES: O=C(O)/C(O)=C/C(=O)c1cn(Cc2ccc(F)cc2)c2cc(N3CCOCC3)ccc2c1=O
- EC50 [1]: 26.3 µM
- selectivity ratio (in vitro): > 1.9
- IC50 [2]: 0.08 µM
- IC50 [3]: 13 µM
- inhibition [4]: inactive
- IC50 [5]: 6.8 µM
- CC50 (HeLa): > 50 µM

SMILES: O=C(O)/C(O)=C/C(=O)c1cn(Cc2ccc(F)cc2)c2cc(N3CCN(CCCCl)CC3)ccc2c1=O
- EC50 [1]: > 50 µM
- IC50 [2]: 0.05 µM
- IC50 [3]: 4.6 µM
- inhibition [4]: inactive
- IC50 [5]: 5.7 µM

SMILES: O=C(O)/C(O)=C/C(=O)c1cn(Cc2ccc(F)cc2)c2cc(N3CCCC3)ccc2c1=O
- inhibition [4]: inactive
- IC50 [5]: 5.1 µM
- CC50 (HeLa): > 50 µM

SMILES: CCOC(=O)/C(O)=C/C(=O)c1cn(Cc2ccc(F)cc2)c2cc(N3CCN(CC)CC3)ccc2c1=O
- CC50 (HeLa): > 50 µM
